This assay has as its target T1, CRTH2 receptor (Homo sapiens, UniProt Q9Y5Y4).
T1 sequence (Q9Y5Y4 1-395): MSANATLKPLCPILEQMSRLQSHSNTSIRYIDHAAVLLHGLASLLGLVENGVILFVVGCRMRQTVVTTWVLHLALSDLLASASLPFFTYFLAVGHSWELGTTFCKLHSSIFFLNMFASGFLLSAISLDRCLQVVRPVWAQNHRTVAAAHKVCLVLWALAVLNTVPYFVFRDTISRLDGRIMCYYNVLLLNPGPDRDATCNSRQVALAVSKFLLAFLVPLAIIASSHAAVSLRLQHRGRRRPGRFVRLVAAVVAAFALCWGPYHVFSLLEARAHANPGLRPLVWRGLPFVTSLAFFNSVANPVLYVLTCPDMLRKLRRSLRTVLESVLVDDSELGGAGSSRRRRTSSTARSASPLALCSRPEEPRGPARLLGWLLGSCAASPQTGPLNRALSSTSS
Briefly: Radioligand binding assay ([3H]-PGD2 displacement, SPA). Details: expressed in transfected cells; host or cells: HEK cell membranes. As to conditions: HEK cell membranes expressing the CRTH2 receptor, 1 nM [3H]-PGD2; Ki from IC50 by Cheng-Prusoff. How it is done: Radioligand Binding Assay
The receptor binding assay is performed in a final volume of 200 μL binding buffer [10 mM BES (pH 7.4), 1 mM EDTA, 10 mM manganese chloride, 0.01% BSA] and 1 nM [^3H]-PGD2 (Amersham Biosciences UK Ltd). Ligands are added in assay buffer containing a constant amount of DMSO (1% by volume). Total binding is determined using 1% by volume of DMSO in assay buffer and non-specific binding is determined using 10 μM of unlabeled PGD2 (Sigma). Human embryonic kidney (HEK) cell membranes (3.5 μg) expressing the CRTH2 receptor are incubated with 1.5 mg wheatgerm agglutinin SPA beads and 1 nM [^3H]-PGD2 (Amersham Biosciences UK Ltd) and the mixture incubated for 3 hours at room temperature. Bound [^3H]-PGD2 is detected using a Microbeta TRILUX liquid scintillation counter (Perkin Elmer). Compound IC50 value is determined using a 6-point dose response curve in duplicate with a semi-log compound dilution series. IC50 calculations are performed using Excel and XLfit (Microsoft), and this value is used to determine a Ki value for the test compound using the Cheng-Prusoff equation.

Where only a bound is given, the exact number is not on record here.

Consider `Cc1nc2c(Cl)ccc(OCC(=O)O)c2c(C)c1Cc1ccc(S(C)(=O)=O)cc1Cl` [Example 38, [8-chloro-3-(2-chloro-4-methanesulfonylbenzyl)-2,4-dimethylquinolin-5-yloxy]acetic Acid], for which the Ki (as a rule, a dissociation constant, usually derived from enzyme kinetics or from competition with a known ligand) was less than 0.1 µM.

Take `CCc1nc2c(Cl)ccc(OCC(=O)O)c2c(OC(F)F)c1Cc1ccc(Cl)cc1` [Example 39, [8-chloro-3-(4-chlorobenzyl)-4-difluoromethoxy-2-ethylquinolin-5-yloxy]acetic Acid]: the Ki is less than 0.1 µM.

Compound `Cc1c(Cc2ccc(S(C)(=O)=O)cc2Cl)c(OC(F)F)nc2c(Cl)ccc(OCC(=O)O)c12` [Example 40, [8-chloro-3-(2-chloro-4-methanesulfonylbenzyl)-2-difluoromethoxy-4-methylquinolin-5-yloxy]acetic Acid] registered an inhibition constant Ki of less than 0.1 µM.

In turn, `CCc1nc2c(Cl)ccc(OCC(=O)O)c2c(CC)c1Cc1ccc(S(C)(=O)=O)cc1` [Example 41, [8-chloro-2,4-diethyl-3-(4-methanesulfonylbenzyl)quinolin-5-yloxy]acetic Acid] displayed an inhibition constant Ki of less than 0.1 µM.

`CC(C)c1nc2c(Cl)ccc(OCC(=O)O)c2c(OC(F)F)c1Cc1ccc(S(C)(=O)=O)cc1` [Example 43, [8-chloro-4-difluoromethoxy-2-isopropyl-3-(4-methanesulfonylbenzyl)quinolin-5-yloxy]acetic Acid]: the inhibition constant (Ki) is less than 0.1 µM.

In the case of `Cc1c(Cc2ccc(S(C)(=O)=O)cc2)c(C#N)nc2c(Cl)ccc(OCC(=O)O)c12` [Example 44, [8-chloro-2-cyano-3-(4-methanesulfonylbenzyl)-4-methylquinolin-5-yloxy]acetic Acid], the Ki is less than 0.1 µM.

With `CCc1nc2c(F)ccc(OCC(=O)O)c2c(OC(F)F)c1Cc1ccc(S(C)(=O)=O)cc1` [Example 45, [4-difluoromethoxy-2-ethyl-8-fluoro-3-(4-methanesulfonylbenzyl)-quinolin-5-yloxy]acetic Acid], the Ki was less than 0.1 µM.

On to `Cc1c(Cc2ccc(S(C)(=O)=O)cc2Cl)c(OC(F)F)nc2c(F)ccc(OCC(=O)O)c12` [Example 46, [3-(2-chloro-4-methanesulfonylbenzyl)-2-difluoromethoxy-8-fluoro-4-methylquinolin-5-yloxy]acetic acid], for which the inhibition constant Ki was less than 0.1 µM.

In turn, `CCc1nc2c(F)ccc(OCC(=O)O)c2c(OC(F)F)c1Cc1ccc(S(C)(=O)=O)cc1Cl` [Example 47, [3-(2-chloro-4-methanesulfonylbenzyl)-4-difluoromethoxy-2-ethyl-8-fluoroquinolin-5-yloxy]acetic acid] gave an inhibitory constant (Ki) of less than 0.1 µM.

`Cc1c(Cc2ccc(S(C)(=O)=O)cc2)c(OC(F)F)nc2c(F)ccc(OCC(=O)O)c12` [Example 48, [2-difluoromethoxy-8-fluoro-3-(4-methanesulfonylbenzyl)-4-methylquinolin-5-yloxy]acetic acid] showed an inhibition constant Ki of less than 0.1 µM.

`CCc1nc2c(F)ccc(OCC(=O)O)c2c(OC(F)F)c1Cc1ccc(Cl)cc1` [Example 49, [3-(4-chlorobenzyl)-4-difluoromethoxy-2-ethyl-8-fluoroquinolin-5-yloxy]acetic Acid] registered a Ki of less than 0.1 µM.

Take `CCc1nc2c(F)ccc(OCC(=O)O)c2c(OC(F)F)c1Cc1ccc(F)cc1` [Example 50, [4-difluoromethoxy-2-ethyl-8-fluoro-3-(4-fluorobenzyl)quinolin-5-yloxy]acetic Acid]: the inhibition constant (Ki) was less than 0.1 µM.

Consider `Cc1c(Cc2ccc(Cl)cc2Cl)c(OC(F)F)nc2c(F)ccc(OCC(=O)O)c12` [Example 51, [3-(2,4-dichlorobenzyl)-2-difluoromethoxy-8-fluoro-4-methylquinolin-5-yloxy]acetic Acid], for which the Ki is less than 0.1 µM.

Compound `Cc1c(Cc2ccc(F)cc2)c(OC(F)F)nc2c(F)ccc(OCC(=O)O)c12` [Example 52, [2-difluoromethoxy-8-fluoro-3-(4-fluorobenzyl)-4-methylquinolin-5-yloxy]acetic Acid] showed an inhibition constant Ki of less than 0.1 µM.

In turn, `CCc1nc2c(F)ccc(OCC(=O)O)c2c(OC(F)F)c1Cc1ccc(F)cc1F` [Example 53, [3-(2,4-difluorobenzyl)-4-difluoromethoxy-2-ethyl-8-fluoroquinolin-5-yloxy]acetic Acid] registered a Ki of less than 0.1 µM.

In turn, `CCc1nc2c(F)ccc(OCC(=O)O)c2c(OC(F)F)c1Cc1ccc(Cl)cc1Cl` [Example 54, [3-(2,4-dichlorobenzyl)-4-difluoromethoxy-2-ethyl-8-fluoroquinolin-5-yloxy]acetic acid] registered a Ki of less than 0.1 µM.

On to `Cc1c(Cc2ccc(F)cc2F)c(OC(F)F)nc2c(F)ccc(OCC(=O)O)c12` [Example 55, [3-(2,4-difluorobenzyl)-2-difluoromethoxy-8-fluoro-4-methylquinolin-5-yloxy]acetic acid], for which the Ki was less than 0.1 µM.

Turning to `Cc1c(Cc2ccc(Cl)cc2F)c(OC(F)F)nc2c(F)ccc(OCC(=O)O)c12` [Example 56, [3-(4-chloro-2-fluorobenzyl)-2-difluoromethoxy-8-fluoro-4-methylquinolin-5-yloxy]acetic Acid], the inhibition constant (Ki) was less than 0.1 µM.

Compound `Cc1c(Cc2ccc(Cl)cc2)c(OC(F)F)nc2c(Cl)ccc(OCC(=O)O)c12` [Example 57, [8-chloro-3-(4-chlorobenzyl)-2-difluoromethoxy-4-methylquinolin-5-yloxy]acetic Acid] yielded an inhibition constant Ki of less than 0.1 µM.

`CCc1nc2c(F)ccc(OCC(=O)O)c2c(OC(F)F)c1Cc1ccc(F)cc1Cl` [Example 58, [3-(2-chloro-4-fluorobenzyl)-4-difluoromethoxy-2-ethyl-8-fluoroquinolin-5-yloxy]acetic Acid] had a Ki of less than 0.1 µM.

`Cc1c(Cc2ccc(F)cc2Cl)c(OC(F)F)nc2c(F)ccc(OCC(=O)O)c12` [Example 59, [3-(2-chloro-4-fluorobenzyl)-2-difluoromethoxy-8-fluoro-4-methylquinolin-5-yloxy]acetic Acid] gave an inhibition constant Ki of less than 0.1 µM.

Compound `CCc1nc2c(F)ccc(OCC(=O)O)c2c(OC(F)F)c1Cc1ccc(S(=O)(=O)CC)cc1` [Example 60, [4-difluoromethoxy-3-(4-ethanesulfonylbenzyl)-2-ethyl-8-fluoroquinolin-5-yloxy]acetic Acid] yielded a Ki of less than 0.1 µM.

Regarding `CCS(=O)(=O)c1ccc(Cc2c(OC(F)F)nc3c(F)ccc(OCC(=O)O)c3c2C)cc1` [Example 61, [2-difluoromethoxy-3-(4-ethanesulfonylbenzyl)-8-fluoro-4-methylquinolin-5-yloxy]acetic Acid], the Ki was less than 0.1 µM.

Compound `CCc1nc2c(Cl)ccc(OCC(=O)O)c2c(OC(F)F)c1Cc1ccc(Cl)cc1F` [Example 62, [8-chloro-3-(4-chloro-2-fluorobenzyl)-4-difluoromethoxy-2-ethylquinolin-5-yloxy]acetic Acid] had an inhibition constant (Ki) of less than 0.1 µM.

In turn, `CCc1nc2c(F)ccc(OCC(=O)O)c2c(OC(F)F)c1Cc1ccc(Cl)cc1F` [Example 63, [3-(4-chloro-2-fluorobenzyl)-4-difluoromethoxy-2-ethyl-8-fluoroquinolin-5-yloxy]acetic acid] had an inhibition constant (Ki) of less than 0.1 µM.

As for `CCc1nc2c(F)ccc(OCC(=O)O)c2c(OC(F)F)c1Cc1ccc(S(=O)(=O)N2CCOCC2)cc1` [Example 64, {4-difluoromethoxy-2-ethyl-8-fluoro-3-[4-(morpholine-4-sulfonyl)benzyl]quinolin-5-yloxy}acetic acid], the Ki is less than 0.1 µM.

For the compound `CCc1nc2c(F)ccc(OCC(=O)O)c2c(OC(F)F)c1Cc1ccc(C(=O)N2CCCC2)cc1` [Example 65, {4-difluoromethoxy-2-ethyl-8-fluoro-3-[4-(pyrrolidine-1-carbonyl)benzyl]quinolin-5-yloxy}acetic Acid], the Ki was less than 0.1 µM.

`Cc1c(Cc2ccc(Cl)cc2)c(OC(F)F)nc2c(Cl)ccc(OC(C)(C)C(=O)O)c12` [Example 66, 2-[8-chloro-3-(4-chlorobenzyl)-2-difluoromethoxy-4-methylquinolin-5-yloxy]-2-methylpropionic Acid] had a Ki of less than 10 µM.

Regarding `Cc1c(Cc2ccc(Cl)cc2Cl)c(OC(F)F)nc2c(F)ccc(OC(C)C(=O)O)c12` (stereo not shown) [Example 67, 2-[3-(2,4-dichlorobenzyl)-2-difluoromethoxy-8-fluoro-4-methylquinolin-5-yloxy]propionic Acid], the Ki was less than 0.1 µM.

As to `Cc1c(Cc2ccc(Cl)cc2Cl)c(OC(F)F)nc2c(F)ccc(O[C@@H](C)C(=O)O)c12` [Example 68, (S)-2-[3-(2,4-dichlorobenzyl)-2-difluoromethoxy-8-fluoro-4-methylquinolin-5-yloxy]propionic Acid], the Ki was less than 0.1 µM.

`Cc1c(Cc2ccc(Cl)cc2)c(OC(F)F)nc2c(Cl)ccc(OC(C)C(=O)O)c12` (stereo not shown) [Example 69, 2-[8-chloro-3-(4-chlorobenzyl)-2-difluoromethoxy-4-methylquinolin-5-yloxy]propionic Acid]: the inhibitory constant (Ki) is less than 0.1 µM.

The values above are taken from US7858640B2, “Quinolines and their therapeutic use” (Pulmagen Therapeutics (Asthma) Limited, priority 2005, dated 2010).
